“Also recorded” adds a separate entry of the source.
Columns and labels:
[1] = test system: rabbit eye model; test: Effect of benzalkonium chloride on the miotic effect of carbachol; type: in vivo
Description: In still further experiments, the inventors investigated the effect of benzalkonium chloride on the miotic effect of carbachol. To that end, different concentrations of BAC were employed between 0.005% and 0.02% at carbachol concentrations between 0.025% and 0.075%, and the results are shown in FIGS. 6A-6C. […] As BAK is believed to increase permeability of the respective agents across the corneal tissue, addition of BAK at concentrations up to 0.05% may advantageously increase miotic effect at otherwise identical drug concentration. Thus, BAK may enhance the miotic action of brimonidine, rivastigmine, galantamine, and carbachol, which may in turn allow for reduced drug concentrations and/or increased miotic effect without unduly extending the duration of the miotic effect.

[2] = test system: rabbit eye model; test: Pupillometry: effect of single topical ocular administration on pupillary diameter (miotic effect) in rabbit eye model; type: in vivo, Dutch Belted Rabbits
Experimental: The following examples were performed to determine which active pharmaceutical agent (API), alone or in combination, could effect upon topical administration an approximate 1-2 mm decrease in pupillary diameter with a desirable (e.g., about 4 h) duration of action. Unless stated otherwise, a rabbit animal model was used for the studies. Phentolamine was used as a positive control (comparator API) and caused an approximately 1 mm decrease in the pupil at 0.5% and 1% with a duration of more than 6 hours.
Study design: 3 Dutch Belted Rabbits (pigmented breed)/group received a single ocular administration of test articles (one drop per eye) at 3 concentrations (tested one week apart). After a 2-week rest period, combinations were tested. Ocular irritation was assessed using a modified Draize test. Intraocular pressure (IOP) was measured at baseline, 1 h, 4 h, 6 h and 24 hours. Pupillary Diameter was measured at baseline, 15 min, 1 h, 4 h and 6 h after dosing. Due to the variation in pupillary diameter and IOP between rabbits and between eyes within rabbits, the data for pupillary diameter and IOP were normalized and presented with error bars (SD). A change of 15% to 20% approximates a pupillary diameter change of 1 mm. […]

## N-Alkyl-N-benzyl-N,N-dimethyl-ammonium chloride [BAC]
[1]; BAC 0.005%, at 1 hr, higher carbachol concentration (FIG. 6A)
  effect of BAC on miotic effect of carbachol: some effect
[1]; BAC 0.005%, carbachol 0.025%-0.075% (FIG. 6A)
  effect of BAC on miotic effect of carbachol: minimal effect
[1]; BAC 0.01%, carbachol 0.025%-0.075% (FIG. 6B)
  effect of BAC on miotic effect of carbachol: somewhat more pronounced
[1]; BAC at least 0.02%, carbachol 0.025%-0.075% (FIG. 6C)
  effect of BAC on miotic effect of carbachol: significant

## Cc1ccc(N(CC2=NCCN2)c2cccc(O)c2)cc1 [Phentolamine]
[2]; all doses, topical, rabbit (FIG. 1)
  duration of reduction in pupillary diameter: at least 6 h
[2]; at 0.5% and 1%, topical, one drop per eye, rabbit
  decrease in the pupil: approximately 1 mm

## CCN(C)C(=O)Oc1cccc(C(C)N(C)C)c1 (stereo not drawn) [Rivastigmine, N-ethyl-3-[1-dimethylamino)ethyl]-N-methylphenyl carbamate]
[2]; concentration of about 1%, alone, rabbit
  decrease in pupil: 1 mm
[2]; concentration of about 1%, alone, rabbit (FIG. 3A)
  miotic effect on pupillary diameter (comparison in words): substantially similar to phentolamine

## Br.COc1ccc2c3c1O[C@H]1C[C@@H](O)C=C[C@@]31CCN(C)C2 [Galantamine, galantamine]
[2]; concentration of about 2%, alone, rabbit
  decrease in pupil: 1-2 mm
[2]; high dose (2%), rabbit (FIG. 4A)
  duration of reduction in pupillary diameter (lasted at least): at least 1 h

## C[N+](C)(C)CCOC(N)=O [carbachol]
[2]; carbachol, even at lowest dose (about 0.075%), rabbit
  duration of action (miotic effect): 2 to 4 h
[2]; even at the lowest dose / low concentration of about 0.075%, rabbit (FIG. 5)
  miotic effect (potency in words): very potent

## Brc1c(N=C2NCCN2)ccc2nccnc12.O=C(O)C(O)C(O)C(=O)O [Brimonidine, 5-Bromo-6-(2-imidazolidinylideneamino) quinoxaline L-tartrate]
[2]; at doses tested, rabbit
  miotic effect on pupillary diameter: little to no effect
[2]; doses at or below 0.1%, rabbit (FIG. 2), L-tartrate
  miotic effect on pupillary diameter: some miotic effect; also recorded: moderate effect
[2]; higher doses tested, at or above 0.2%, rabbit (FIG. 2)
  miotic effect on pupillary diameter: little to no effect
